The results in this text go back to PubChem BioAssay (NCI).

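Five concentrations, 48 hours, 96-well plates. The concentration for full growth arrest is given as TGI.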 Where only a bound is given, the exact number is not on record here.

Among the test systems are KM12 colon; MCF7 breast; CAKI-1 renal; OVCAR-3 ovarian; IGROV1 ovarian; UO-31 renal; RXF 393 renal; NCI-H460 lung; HCC-2998 colon; K-562 leukemia.
Common to all, as to experiment: inhibition of tumour cell growth, NCI panel, 48 h

As for `CC1(C)OC2COC3([C@@H]4OC(C)(C)O[C@@H]4CO)OC(C)(C)OC3C2O1` (stereo not given in full), the TGI in the experiment with KM12 colon, in the experiment on MCF7 breast, with CAKI-1 renal, with OVCAR-3 ovarian, with IGROV1 ovarian and with UO-31 renal was greater than 100 µM throughout. Moreover, the TGI with RXF 393 renal, in the experiment with NCI-H460 lung, with HCC-2998 colon and in the experiment on K-562 leukemia was greater than 100 µM throughout.
With `CC(C)N1CN(c2ccccc2)C2(CCN(CCCC(=O)c3ccc(F)cc3)CC2)C1=O`, the TGI in the experiment with KM12 colon came out at 42.1 µM; in the experiment on MCF7 breast it was 13.1 µM; in the experiment with CAKI-1 renal, 34.7 µM; in the experiment on OVCAR-3 ovarian it was 65.6 µM; in the experiment on IGROV1 ovarian, 17.5 µM; in the experiment with UO-31 renal, 58 µM. The TGI in the experiment on RXF 393 renal was greater than 82.2 µM; with NCI-H460 lung, 54.2 µM; with HCC-2998 colon, 27.7 µM; in the experiment with K-562 leukemia, 69.7 µM.
With `COc1ccc(C2c3cc4c(cc3OC(NCCO)C2C)OCO4)cc1` (stereo not given), the TGI is greater than 100 µM in the experiment on KM12 colon; 66.7 µM with MCF7 breast; 77.1 µM in the experiment with CAKI-1 renal; 36.4 µM in the experiment on OVCAR-3 ovarian; greater than 100 µM in the experiment on IGROV1 ovarian; 76.8 µM in the experiment with UO-31 renal. Besides, the TGI in the experiment on RXF 393 renal was found to be 75.2 µM; with NCI-H460 lung, 63.6 µM; with HCC-2998 colon, 66 µM; with K-562 leukemia, 58.8 µM.
As to `O=C(CC(C(=O)c1ccco1)c1ccco1)c1ccco1` (stereo not given), the TGI is greater than 100 µM with KM12 colon; greater than 100 µM in the experiment on MCF7 breast; greater than 100 µM with CAKI-1 renal; greater than 100 µM with OVCAR-3 ovarian; greater than 100 µM with IGROV1 ovarian; 92.5 µM in the experiment with UO-31 renal. Besides, the TGI in the experiment with RXF 393 renal, with NCI-H460 lung, in the experiment with HCC-2998 colon and with K-562 leukemia was greater than 100 µM each time.
For `C[C@]12CC[C@@H]3c4ccc(O)cc4CC[C@H]3[C@@H]1C/C(=C\c1ccc(C#N)cc1)C2=O`, the TGI with KM12 colon, with MCF7 breast, with CAKI-1 renal, in the experiment with OVCAR-3 ovarian, with IGROV1 ovarian and in the experiment with UO-31 renal was greater than 100 µM throughout. Further, the TGI was 52.6 µM in the experiment with RXF 393 renal, greater than 100 µM with NCI-H460 lung, greater than 100 µM with HCC-2998 colon and greater than 100 µM with K-562 leukemia.
Turning to `O=C(OCC1OC(n2nc(Cn3nnc(-c4cccnc4)n3)n(-c3cccc4ccccc34)c2=S)C(OC(=O)c2ccccc2)C1OC(=O)c1ccccc1)c1ccccc1` (stereo not given), the TGI in the experiment with KM12 colon, with MCF7 breast, with CAKI-1 renal, with OVCAR-3 ovarian, with IGROV1 ovarian and in the experiment with UO-31 renal was greater than 100 µM in each case. Further, the TGI in the experiment on RXF 393 renal, in the experiment on NCI-H460 lung, in the experiment on HCC-2998 colon and in the experiment with K-562 leukemia was greater than 100 µM each time.
Turning to `COc1ccc2c(c1)c(=O)c1c(NCCNCCO)ccc3c(=O)n(CCN(C)C)c(=O)n2c31`, the TGI in the experiment on KM12 colon is 0.831 µM; in the experiment on MCF7 breast it was 3.54 µM; in the experiment on CAKI-1 renal it was 2.79 µM; in the experiment with OVCAR-3 ovarian, 4.62 µM; in the experiment on IGROV1 ovarian it was 1.46 µM; in the experiment with UO-31 renal, 1.61 µM. For the same molecule, the TGI turned out to be 0.266 µM in the experiment on RXF 393 renal, 0.266 µM in the experiment on NCI-H460 lung, 0.234 µM with HCC-2998 colon and 0.333 µM in the experiment with K-562 leukemia.
As for `CC(C)C1=C(O)C2=C(C(=O)C1=O)C1(C)CCCC(C)(C)C1C(O)C2OC=O` (stereo not given), the TGI in the experiment on KM12 colon came out at 24.7 µM; in the experiment with MCF7 breast, 27.7 µM; in the experiment with CAKI-1 renal, 11.7 µM; in the experiment with OVCAR-3 ovarian it was 25.9 µM; in the experiment on IGROV1 ovarian it was 22.2 µM; in the experiment with UO-31 renal, 18.8 µM. For the same molecule, the TGI in the experiment with RXF 393 renal is 20.2 µM; in the experiment on NCI-H460 lung it was 12.7 µM; with HCC-2998 colon, 19.2 µM; in the experiment with K-562 leukemia, greater than 100 µM.
Regarding `COC1C(O)C(O[C@H]2CC[C@@]3(C)C(CC[C@@H]4[C@@H]3CC[C@]3(C)[C@@H](C(C)OC5OC(CO)C(O)C(O)C5O)CC[C@]43O)C2)OC(C)C1OC1OC(CO)C(O)C(O)C1O` (stereo not given in full), the TGI in the experiment on KM12 colon, in the experiment with MCF7 breast, with CAKI-1 renal, with OVCAR-3 ovarian, in the experiment with IGROV1 ovarian and with UO-31 renal was greater than 100 µM in each case. For the same molecule, the TGI with RXF 393 renal, in the experiment with NCI-H460 lung, in the experiment on HCC-2998 colon and with K-562 leukemia was greater than 100 µM each time.
In the case of `CC(C)[Si](OC/C(=C/COC(C)(C)C)[C@H]1CC=C(C(=O)c2ccccc2N2CN(C)C(=O)N(C)C2)C1)(C(C)C)C(C)C`, the TGI with KM12 colon was 44.4 µM; in the experiment on MCF7 breast it was 15.1 µM; in the experiment on CAKI-1 renal it was 23.5 µM; with OVCAR-3 ovarian it was 25 µM; in the experiment with IGROV1 ovarian, 25.6 µM; with UO-31 renal it was 23.1 µM. Further, the TGI in the experiment with RXF 393 renal is 17.5 µM; with NCI-H460 lung it was 28.7 µM; with HCC-2998 colon, 31 µM; in the experiment with K-562 leukemia it was greater than 36.4 µM.
`CC1(C)CC(C#Cc2ccccc2)CC(C)(C)N1O`: the TGI with KM12 colon is 36.1 µM; in the experiment on MCF7 breast, 36.3 µM; with CAKI-1 renal it was 61.3 µM; in the experiment on OVCAR-3 ovarian, 37.4 µM; in the experiment on IGROV1 ovarian it was greater than 100 µM; in the experiment with UO-31 renal it was 32.4 µM. The TGI was 63.4 µM in the experiment on RXF 393 renal, 44.8 µM with NCI-H460 lung, 32.2 µM with HCC-2998 colon and greater than 100 µM in the experiment with K-562 leukemia.
On to `CN(C)c1ccc(Cc2cc3c(O)ccc(O)c3cc(Cc3ccc(N(C)C)cc3)c2=O)cc1`, for which the TGI in the experiment on KM12 colon was 40 µM; in the experiment with MCF7 breast, 58.6 µM; in the experiment on CAKI-1 renal, 20.5 µM; in the experiment on OVCAR-3 ovarian, 54.2 µM; in the experiment on IGROV1 ovarian it was 40.2 µM; in the experiment on UO-31 renal it was 27.7 µM. Moreover, the TGI is 31.9 µM in the experiment with RXF 393 renal, greater than 100 µM in the experiment on NCI-H460 lung, 64 µM in the experiment on HCC-2998 colon and 10.6 µM in the experiment with K-562 leukemia.
